In ChEMBL document CHEMBL1250451, “Mechanistic insights into a Ca2+-dependent family of alpha-mannosidases in a human gut symbiont” (Nat Chem Biol, 2010):

Columns and labels:
Assay type in all cases: protein assay
[1] = target: T1, Alpha-1,2-mannosidase (BT_2199) (Bacteroides thetaiotaomicron) (UniProt Q8A5N9); assay: Activity of Bacteroides thetaiotaomicron GH92 alpha-mannosidase 2199 assessed as recovery of enzyme activity at 1 mM relative to enzyme activity in presence of calcium
T1 sequence (whole entry): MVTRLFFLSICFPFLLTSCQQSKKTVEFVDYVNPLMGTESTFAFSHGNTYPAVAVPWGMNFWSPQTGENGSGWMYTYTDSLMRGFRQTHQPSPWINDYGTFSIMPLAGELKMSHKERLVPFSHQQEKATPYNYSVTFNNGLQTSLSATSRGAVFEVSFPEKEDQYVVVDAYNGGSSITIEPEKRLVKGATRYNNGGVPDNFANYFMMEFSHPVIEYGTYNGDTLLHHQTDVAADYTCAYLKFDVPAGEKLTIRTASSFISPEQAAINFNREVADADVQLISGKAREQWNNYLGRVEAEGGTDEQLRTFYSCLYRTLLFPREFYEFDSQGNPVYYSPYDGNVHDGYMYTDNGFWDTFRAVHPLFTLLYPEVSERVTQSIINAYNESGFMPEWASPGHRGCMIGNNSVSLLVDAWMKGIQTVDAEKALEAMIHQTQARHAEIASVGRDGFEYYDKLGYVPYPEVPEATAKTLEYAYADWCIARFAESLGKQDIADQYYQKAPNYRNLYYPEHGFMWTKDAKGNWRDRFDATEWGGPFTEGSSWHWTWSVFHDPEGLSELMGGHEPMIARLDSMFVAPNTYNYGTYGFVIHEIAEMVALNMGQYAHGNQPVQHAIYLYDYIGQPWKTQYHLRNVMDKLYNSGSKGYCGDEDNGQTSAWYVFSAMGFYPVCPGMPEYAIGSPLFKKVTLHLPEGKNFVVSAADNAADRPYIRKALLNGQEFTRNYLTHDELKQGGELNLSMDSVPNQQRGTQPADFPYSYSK

[2] = target: T2, Alpha-1,2-mannosidase (BT_3990) (Bacteroides thetaiotaomicron) (UniProt Q8A0N1); assay: Activity of Bacteroides thetaiotaomicron GH92 alpha-mannosidase 3990 assessed as recovery of enzyme activity at 1 mM in presence of 7 mM Sc(3+) ions and in presence of 5 mM EDTA in 100 mM pH 7 MOPS buffer relative to enzyme activity in presence of calcium
T2 sequence (whole entry): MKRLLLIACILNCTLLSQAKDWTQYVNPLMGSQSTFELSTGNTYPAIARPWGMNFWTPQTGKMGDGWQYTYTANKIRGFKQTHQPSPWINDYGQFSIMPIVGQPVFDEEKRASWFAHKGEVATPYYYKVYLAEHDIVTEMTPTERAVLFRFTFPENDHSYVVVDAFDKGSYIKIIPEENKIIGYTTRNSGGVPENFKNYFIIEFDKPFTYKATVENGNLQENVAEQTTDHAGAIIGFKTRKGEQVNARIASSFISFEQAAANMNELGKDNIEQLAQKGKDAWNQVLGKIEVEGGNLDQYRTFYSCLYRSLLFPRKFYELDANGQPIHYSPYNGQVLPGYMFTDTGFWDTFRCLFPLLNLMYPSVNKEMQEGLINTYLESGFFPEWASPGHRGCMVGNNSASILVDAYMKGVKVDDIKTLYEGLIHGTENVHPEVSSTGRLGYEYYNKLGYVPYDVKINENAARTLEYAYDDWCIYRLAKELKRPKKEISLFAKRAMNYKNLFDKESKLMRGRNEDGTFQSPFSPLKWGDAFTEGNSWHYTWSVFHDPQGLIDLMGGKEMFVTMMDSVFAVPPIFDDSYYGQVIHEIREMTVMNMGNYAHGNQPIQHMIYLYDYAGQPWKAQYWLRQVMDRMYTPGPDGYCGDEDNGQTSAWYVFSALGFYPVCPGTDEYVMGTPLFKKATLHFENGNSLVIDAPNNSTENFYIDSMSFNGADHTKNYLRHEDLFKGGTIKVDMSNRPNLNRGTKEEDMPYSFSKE

[3] = target: T1, Alpha-1,2-mannosidase (BT_2199) (Bacteroides thetaiotaomicron); assay: Activity of Bacteroides thetaiotaomicron GH92 alpha-mannosidase 2199 assessed as recovery of enzyme activity at 1 mM in presence of 7 mM Zn(2+) ions and in presence of 5 mM EDTA in 100 mM pH 7 MOPS buffer relative to enzyme activity in presence of calcium
[4] = target: T1, Alpha-1,2-mannosidase (BT_2199) (Bacteroides thetaiotaomicron); assay: Activity of Bacteroides thetaiotaomicron GH92 alpha-mannosidase 2199 assessed as recovery of enzyme activity at 1 mM in presence of 7 mM V(3+) ions and in presence of 5 mM EDTA in 100 mM pH 7 MOPS buffer relative to enzyme activity in presence of calcium
[5] = target: T2, Alpha-1,2-mannosidase (BT_3990) (Bacteroides thetaiotaomicron); assay: Activity of Bacteroides thetaiotaomicron GH92 alpha-mannosidase 3990 assessed as recovery of enzyme activity at 1 mM in presence of 7 mM Co(2+) ions and in presence of 5 mM EGTA in 100 mM pH 7 MOPS buffer relative to enzyme activity in presence of calcium
[6] = target: T2, Alpha-1,2-mannosidase (BT_3990) (Bacteroides thetaiotaomicron); assay: Activity of Bacteroides thetaiotaomicron GH92 alpha-mannosidase 3990 assessed as recovery of enzyme activity at 1 mM in presence of 7 mM Ba(2+) ions and in presence of 5 mM EGTA in 100 mM pH 7 MOPS buffer relative to enzyme activity in presence of calcium
[7] = target: T1, Alpha-1,2-mannosidase (BT_2199) (Bacteroides thetaiotaomicron); assay: Activity of Bacteroides thetaiotaomicron GH92 alpha-mannosidase 2199 assessed as recovery of enzyme activity at 1 mM in presence of 7 mM Be(2+) ions and in presence of 5 mM EDTA in 100 mM pH 7 MOPS buffer relative to enzyme activity in presence of calcium
[8] = target: T2, Alpha-1,2-mannosidase (BT_3990) (Bacteroides thetaiotaomicron); assay: Activity of Bacteroides thetaiotaomicron GH92 alpha-mannosidase 3990 assessed as recovery of enzyme activity at 1 mM in presence of 7 mM Zn(2+) ions and in presence of 5 mM EGTA in 100 mM pH 7 MOPS buffer relative to enzyme activity in presence of calcium
[9] = target: T1, Alpha-1,2-mannosidase (BT_2199) (Bacteroides thetaiotaomicron); assay: Activity of Bacteroides thetaiotaomicron GH92 alpha-mannosidase 2199 assessed as recovery of enzyme activity at 1 mM in presence of 7 mM Mn(2+) ions and in presence of 5 mM EGTA in 100 mM pH 7 MOPS buffer relative to enzyme activity in presence of calcium
[10] = target: T1, Alpha-1,2-mannosidase (BT_2199) (Bacteroides thetaiotaomicron); assay: Activity of Bacteroides thetaiotaomicron GH92 alpha-mannosidase 2199 assessed as recovery of enzyme activity at 1 mM in presence of 7 mM Sc(3+) ions and in presence of 5 mM EDTA in 100 mM pH 7 MOPS buffer relative to enzyme activity in presence of calcium
[11] = target: T1, Alpha-1,2-mannosidase (BT_2199) (Bacteroides thetaiotaomicron); assay: Activity of Bacteroides thetaiotaomicron GH92 alpha-mannosidase 2199 assessed as recovery of enzyme activity at 1 mM in presence of 7 mM Be(2+) ions and in presence of 5 mM EGTA in 100 mM pH 7 MOPS buffer relative to enzyme activity in presence of calcium
[12] = target: T2, Alpha-1,2-mannosidase (BT_3990) (Bacteroides thetaiotaomicron); assay: Activity of Bacteroides thetaiotaomicron GH92 alpha-mannosidase 3990 assessed as recovery of enzyme activity at 1 mM in presence of 7 mM Mg(2+) ions and in presence of 5 mM EGTA in 100 mM pH 7 MOPS buffer relative to enzyme activity in presence of calcium

| Activity [1] [%] | Activity [2] [%] | Activity [3] [%] | Activity [4] [%] | Activity [5] [%] | Activity [6] [%] | Activity [7] [%] | Activity [8] [%] | Activity [9] [%] | Activity [10] [%] | Activity [11] [%] | Activity [12] [%] | SMILES |
| --- | --- | --- | --- | --- | --- | --- | --- | --- | --- | --- | --- | --- |
| 63 | – | – | – | – | – | – | – | – | – | – | – | OC[C@H]1O[C@H](OC[C@H]2O[C@H](O)[C@@H](O)[C@@H](O)[C@@H]2O)[C@@H](O)[C@@H](O)[C@@H]1O |
| – | 0 | 0 | 0 | 11 | 0 | 0 | 0 | 6 | 0 | 0 | 0 | O=[N+]([O-])c1ccc(O[C@H]2O[C@H](CO)[C@@H](O)[C@H](O)[C@@H]2O)cc1 |
